Laboratory results as given in the supplement of paper PMC12513837.
± gives the standard deviation of the averaged measurements.

Compound: CC(=O)N1CCc2c(c(N3CCCc4cc(-c5cnn(C)c5)c(C(F)F)cc43)nn2C2CCC(CN3CCN(c4ccc5c(c4)C(=O)N(C4CCC(=O)NC4=O)C5=O)CC3)CC2)C1 [CBPD-409]
Test: AUC of viability dose-response curve (relative to vehicle, 8 doses up to 10 µM) (fraction); higher = less sensitive (more viable); extreme values may be limits of the assay
Method: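 PRISM multiplexed pooled barcoded cell line viability screen at the Broad Institute, 887 cancer cell lines treated with CBPD-409 (p300/CBP PROTAC degrader) at 8 concentrations in threefold dilution, top dose 10 µM. The read-out is the area under the dose-response curve of relative viability versus vehicle (n=3). AUC < 0.3 is called strongly sensitive and AUC > 0.8 resistant.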

| Test System | AUC of viability dose-response curve |
| --- | --- |
| RERFLCMS_LUNG | 0.837 |
| HT3_CERVIX | 0.711 |
| CADOES1_BONE | 0.458 ± 0.12 |
| MDAMB231_BREAST | 0.701 |
| RMGI_OVARY | 0.73 |
| H157_UPPER_AERODIGESTIVE_TRACT | 0.993 |
| NCIH82_LUNG | 1 |
| UMUC1_URINARY_TRACT | 0.703 |
| OC314_OVARY | 0.619 |
| SKNBE2_AUTONOMIC_GANGLIA | 0.539 ± 0.23 |
| WM983B_SKIN | 0.774 |
| NCIH2444_LUNG | 1 |
| SHP77_LUNG | 0.641 |
| HEC251_ENDOMETRIUM | 0.841 |
| KYSE270_OESOPHAGUS | 0.722 |
| CASKI_CERVIX | 0.376 |
| T3M5_THYROID | 0.776 |
| CALU6_LUNG | 0.928 |
| RCHACV_HAEMATOPOIETIC_AND_LYMPHOID_TISSUE | 0.298 |
| SW1353_BONE | 1 |
| SAOS2_BONE | 0.466 |
| PMFKO14_LARGE_INTESTINE | 0.705 |
| NB1_AUTONOMIC_GANGLIA | 0.112 ± 0.083 |
| VMRCRCZ_KIDNEY | 0.584 |
| MS751_CERVIX | 0.923 |

| Test System | AUC of viability dose-response curve |
| --- | --- |
| U266B1_HAEMATOPOIETIC_AND_LYMPHOID_TISSUE | 0.784 |
| NCIH1299_LUNG | 0.79 |
| OV56_OVARY | 1 |
| HUPT3_PANCREAS | 0.687 |
| JMSU1_URINARY_TRACT | 1 |
| SKLMS1_SOFT_TISSUE | 0.829 |
| EMTOKA_ENDOMETRIUM | 0.825 |
| JIMT1_BREAST | 1 |
| LI7_LIVER | 1 |
| HS944T_SKIN | 1 |
| KS1_CENTRAL_NERVOUS_SYSTEM | 0.307 |
| U2940_HAEMATOPOIETIC_AND_LYMPHOID_TISSUE | 1 |
| OCIC5X_OVARY | 0.69 |
| CAMA1_BREAST | 0.746 |
| JHOM1_OVARY | 0.99 |
| TALL1_HAEMATOPOIETIC_AND_LYMPHOID_TISSUE | 0.762 |
| YAPC_PANCREAS | 1 |
| SW1116_LARGE_INTESTINE | 1 |
| CCLFPEDS0003T_SOFT_TISSUE | 0.392 |
| OV7_OVARY | 1 |
| WM1799_SKIN | 0.639 |
| U2904_HAEMATOPOIETIC_AND_LYMPHOID_TISSUE | 0.826 |
| 253J_URINARY_TRACT | 1 |
| NCIH1793_LUNG | 0.838 |
| KELLY_AUTONOMIC_GANGLIA | 0.234 ± 0.054 |

| Test System | AUC of viability dose-response curve |
| --- | --- |
| HT29_LARGE_INTESTINE | 0.633 |
| TTC642_SOFT_TISSUE | 0.541 |
| BICR6_UPPER_AERODIGESTIVE_TRACT | 0.907 |
| NCIH1693_LUNG | 0.949 |
| PL21_HAEMATOPOIETIC_AND_LYMPHOID_TISSUE | 0.499 |
| ICC12_BILIARY_TRACT | 1 |
| COLO792_SKIN | 0.804 |
| HS611T_HAEMATOPOIETIC_AND_LYMPHOID_TISSUE | 0.742 |
| NCIH727_LUNG | 0.875 |
| EWS502_BONE | 0.749 ± 0.15 |
| LOVO_LARGE_INTESTINE | 0.131 |
| U118MG_CENTRAL_NERVOUS_SYSTEM | 0.983 |
| UMUC13_URINARY_TRACT | 0.199 |
| HUT78_HAEMATOPOIETIC_AND_LYMPHOID_TISSUE | 1 |
| ECGI10_OESOPHAGUS | 0.903 |
| NCIH1048_LUNG | 0.878 |
| NUGC4_STOMACH | 0.344 |
| NCIH1650_LUNG | 0.583 |
| AU565_BREAST | 1 |
| NCIH2087_LUNG | 0.834 |
| TE14_OESOPHAGUS | 0.86 |
| TT2609C02_THYROID | 0.775 |
| SKNFI_AUTONOMIC_GANGLIA | 0.854 |
